Source: PMC6332427, “Drug Discovery of Host CLK1 Inhibitors for Influenza Treatment” (Molecules, 2015)
≈ marks a conversion by molar mass, not a printed value. Where “and” joins values, the source holds several entries; their conditions need not be identical. Equal entries are not always repeated. Where two headings read alike, the source gives them in different places.

Legend:
MDCK cells [1] = experiment: Cytotoxicity assay in MDCK cells (MTT, 72 h); conditions: MDCK cells, 72 h, MTT; more than 90% cells viable
[2] = Cytotoxicity assay in MDCK cells (MTT, 72 h); conditions: dog
recombinant human CLK1 = molecular target: T1, recombinant human CLK1 (Homo sapiens, UniProt P49759); experiment: CLK1 inhibitory assay (Kinase-Glo luminescent kinase assay, MBP substrate); format: biochemical
T1 construct: The primer of human full length CLK1 gene was as follows; made in house; host or cells: Sf9 insect cells (baculovirus, pFastBac1)
Protocol: The optimal conditions were dependent on the largest change in luminescence when comparing kinase reaction wells with control wells.
The kinase assay in this study utilized appropriate concentration of recombinant purified protein CLK1 in the presence of MBP as the substrate, MgCl2, MnCl2, ATP in kinase buffer (10 mM Tris, 1 mM EGTA, 100 μM sodium orthovanadate, 10 μM p-nitrophenyl phosphate (PNP), pH7.4) in a reaction volume of 20 μL. The reaction system were incubated at 25 °C for appropriate time. The Kinase-Glo® Luminescent Kinase Assay Platform was used to measure kinase activity by quantitating the amount of ATP, the signals of which were recorded using PerkinElmer’s EnSpire Multilabel Plate Reader. All the above components were added to the plate by automatic dispenser (EDR-384S, BioTec, Tokyo, Japan). A series of parameters containing the amount of kinase (1.16–298 ng/mL), MBP (3.125–150 μg/mL), ATP (0.1–100 μM), Mg^2+ (0.01–100 mM), Mn^2+ (0.5–20 mM), the percentage of DMSO (0.03%–10%), reaction time and temperature were optimized respectively in order to get best performance. Z′ factor values was calculated as described.
The inhibition percentage of the compounds against CLK1 were calculated according to the formula: (1) inhibition%=[(RLUsample−RLUpositive)/(RLUnegative−RLUpositive)]×100% where the RLUsample, RLUpositive, RLUnegative are the measured RLU values with treatment of test compounds, the wells free of test compounds, and that of without kinase, respectively.

[3] = tested on: influenza virus A/PR/8/34 (H1N1); experiment: organism not typed; conditions: MDCK
[4] = tested on: influenza virus A/PR/8/34 (H1N1); experiment: in vitro; conditions: for selectivity ratio at 24 h: MDCK, H1N1
in vitro = conditions: dog
[5] = tested on: influenza virus A/PR/8/34 (H1N1); experiment: microbe, parasite or virus in culture; conditions: read-out: EC50s in time-of-addition assays
MDCK cells [6] = conditions: dog, 72 h
[7] = 24 h, read-out: Simultaneous Treatment Assay EC50
[8] = read-out: Post-Treatment Assay EC50
[9] = read-out: Pre-Treatment Assay EC50
[10] = Kinase-Glo assay, read-out: IC50 (converted)
[11] = Post-Treatment Assay SI (selective index, CC50/EC50), post-treatment
[12] = Pre-Treatment Assay SI (selective index, CC50/EC50), pre-treatment
[13] = Simultaneous Treatment Assay SI (selective index, CC50/EC50), simultaneous treatment

T1 sequence (P49759 whole entry): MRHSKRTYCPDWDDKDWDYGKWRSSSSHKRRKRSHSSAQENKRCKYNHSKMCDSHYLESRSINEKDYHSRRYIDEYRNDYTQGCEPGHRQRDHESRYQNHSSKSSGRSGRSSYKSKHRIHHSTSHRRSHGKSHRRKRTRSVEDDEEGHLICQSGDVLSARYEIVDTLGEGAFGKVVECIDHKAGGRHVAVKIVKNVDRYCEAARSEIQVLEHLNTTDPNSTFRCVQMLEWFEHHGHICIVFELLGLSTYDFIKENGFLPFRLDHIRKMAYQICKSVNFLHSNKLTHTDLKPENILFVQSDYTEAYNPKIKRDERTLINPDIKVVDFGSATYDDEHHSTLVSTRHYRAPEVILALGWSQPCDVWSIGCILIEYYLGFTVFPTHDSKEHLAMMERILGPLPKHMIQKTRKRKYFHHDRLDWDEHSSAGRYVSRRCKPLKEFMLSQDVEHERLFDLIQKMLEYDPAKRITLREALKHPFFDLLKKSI

Structure (SMILES)	CC0 (maximal non-cytotoxic concentration) (MDCK cells [1])	CC50 at 72 h [2]	IC50 (recombinant human CLK1; IC50, Kinase-Glo assay)	EC50 [3, 7]	EC50 [3, 8]	EC50 [3, 9]	selectivity ratio ([4]; Post-Treatment Assay SI (selective index, CC50/EC50))	selectivity ratio ([4]; Pre-Treatment Assay SI (selective index, CC50/EC50))	selectivity ratio ([4]; Simultaneous Treatment Assay SI (selective index, CC50/EC50))	CC50 at 72 h ([2]; MDCK cells)	IC50 (recombinant human CLK1; Figure 6, Kinase-Glo assay, read-out: IC50 (converted))	IC50 (recombinant human CLK1; [10])	selectivity ratio at 24 h [4, 11]	selectivity ratio at 24 h [4, 12]	selectivity ratio at 24 h [4, 13]	CC50 at 72 h (in vitro)	EC50 ([5]; unidentified influenza virus, H1N1|PR/8, MDCK)	CC0 (maximal non-cytotoxic concentration) (MDCK cells [6])	EC50 ([5]; MDCK)	concentration above which toxic effects occur (MDCK cells [6])
O=c1c(-c2ccc(O)cc2)coc2cc(O)cc(O)c12 [Genistein]	30 µg/mL	75.6 µg/mL (≈ 280 µM)	< 185 µM	> 30 µg/mL	> 30 µg/mL	> 30 µg/mL														
O=c1c(O)c(-c2ccc(O)cc2)oc2cc(O)cc(O)c12 [J10610, Kaempferol]	30 µg/mL			12.3 ± 5.89 µg/mL (≈ 43.1 µM)	23.3 ± 1.08 µg/mL (≈ 81.4 µM)	5.16 ± 2.4 µg/mL (≈ 18 µM)	2.94	13.3	5.55	68.5 µg/mL (≈ 239 µM)	6.01 µM	< 175 µM								
O=C(Oc1cc(O)c2c(c1)O[C@H](c1cc(O)c(O)c(O)c1)[C@@H](O)C2)c1cc(O)c(O)c(O)c1 [J10688, Clypearin]				1.2 ± 0.28 µg/mL (≈ 2.62 µM)	18.1 ± 3.02 µg/mL (≈ 39.4 µM)	0.75 ± 0.13 µg/mL (≈ 1.64 µM)						< 109 µM and 2.62 µM	> 11.1	> 267	> 167	> 200 µg/mL	< 20 µg/mL	100 µg/mL		
C/C=C/C(=O)c1c(O)c2c(c3c(-c4ccccc4)cc(=O)oc13)OC(C)(C)C=C2 [J10857]				16.3 ± 2.29 µg/mL (≈ 41.9 µM)	14.7 ± 5.25 µg/mL (≈ 37.8 µM)	18.4 ± 13 µg/mL (≈ 47.4 µM)						< 129 µM	5.3	4.22	4.78	77.7 µg/mL (≈ 200 µM)		30 µg/mL		
Cc1c([N+](=O)[O-])c(O)c([N+](=O)[O-])c2oc(=O)c(C(=O)Nc3cccc(C(=O)O)c3)cc12 [J11534]	30 µg/mL	175 µg/mL (≈ 408 µM)	< 116 µM	> 30 µg/mL	> 30 µg/mL	> 30 µg/mL														
O=C(O[C@@H]1O[C@@H]2COC(=O)c3cc(O)c(O)c(O)c3-c3c(cc(O)c(O)c3O)C(=O)O[C@H]([C@H]1O)[C@@H]2O)c1cc(O)c(O)c(O)c1 [J12098, Corilagin]			< 78.8 µM and 0.599 µM	2 ± 2.22 µg/mL (≈ 3.15 µM)	5.91 ± 1.44 µg/mL (≈ 9.32 µM)	3.99 ± 3.72 µg/mL (≈ 6.29 µM)							26	38.5	76.8	154 µg/mL (≈ 242 µM)		30 µg/mL	< 20 µg/mL	
O=C(O[C@@H]1Cc2c(O)cc(O)cc2O[C@@H]1c1cc(O)c(O)c(O)c1)c1cc(O)c(O)c(O)c1 [J14080, Epigallocatechin gallate]	30 µg/mL	71.1 µg/mL (≈ 155 µM)	< 109 µM	14.9 ± 1.81 µg/mL (≈ 32.4 µM)	> 30 µg/mL	10.2 ± 6.22 µg/mL (≈ 22.2 µM)														
COc1cc(/C=C/c2cc(O)cc(O)c2)ccc1O [J14528, Isorhapontigenin]			< 194 µM	> 30 µg/mL	> 30 µg/mL	5.98 ± 2.3 µg/mL (≈ 23.2 µM)								13.9		83.4 µg/mL (≈ 323 µM)		30 µg/mL		
Oc1cc(O)cc(/C=C/c2ccccc2)c1 [J14848, Pinosylvin]			< 236 µM and 395 µM	5.28 ± 2.45 µg/mL (≈ 24.9 µM)	6.65 ± 4.3 µg/mL (≈ 31.3 µM)	7.54 ± 5.48 µg/mL (≈ 35.5 µM)							3.23	2.42	3.46	18.3 µg/mL (≈ 86 µM)		10 µg/mL		above 10 μg/mL
